From US9187458B2, “Cyanoquinoline derivatives” (Tianjin Hemay Bio-Tech Co., LTD., priority 2010, dated 2015) come the findings set out here.

As usually defined, the IC50 is the concentration that gives 50% inhibition. By GI50 is commonly meant the concentration giving 50% growth inhibition. Lower therefore signals more potent growth inhibition.

In assay [1] the test system is A431 cells. Briefly: A431 Cell Growth Inhibition Test (MTT Assay). Type of assay: cell-based, human. As to conditions: Homo sapiens; for IC50: A-431, 68 h incubation; for inhibition at 1 µM: A-431, 68 h, compound 1 μM, 68 h incubation, read-out: Growth Inhibition Ratio (%). The protocol:
A431 Cell Growth Inhibition Test (MTT Assay)
1. Cell strains: A431 (human epithelial […] cell strains);
Culture medium: 45% DMEM, 45% F12+10% FBS;
(§1) 1. A plate (10 cm) of cells in logarithmic growth phase normally cultured was collected;
(§2) 2. The culture solution was sucked out. The plate was washed with 5 ml of PBS 1-2 times;
3. PBS was sucked out, and 2 ml of 0.25% pancreatin was added to infiltrate the cells for 1 min;
4. The pancreatin was sucked out, and the culture plate was placed in an incubator. Digestion was carried out for about 15 min at 37° C.;
5. 4 ml of complete culture solution was added in the culture plate to stop the digestion. The cells were carefully scoured with micropipette (1 ml) to give a uniform cell suspension. The suspension was implanted into a 96-well cell culture plate by 2500 cells/100 μl per well. The culture plate was incubated overnight under 5% CO2 at 37° C. In day 2, 100 μl of culture solution comprising the compound was added in each well, and further incubated for 68 h under 5% CO2 at 37° C.
(§3) 6. The culture solution was sucked out;
7. 100 μl of serum-free culture solution containing 0.5 mg/ml MTT was added in each well, and incubated for 4 h;
(§4) 8. The culture solution was carefully sucked out;
9. 100 μl of DMSO was added into each well and vibrated to dissolve;
(§5) 10. OD values were determined at 490 nM.
(§6) 1. Calculation of Relative Inhibition Ratio The inhibition ratio of a compound on cell growth=(PC−n)/(PC−NC)×100%
IC50: concentration of a compound where inhibition ratio was 50%. IC50 values were fitted with Origin7.5.

The subject of assay [2] is A549 cells. Briefly: A549 Cell Growth Inhibition Test (MTT Assay). It counts as cell-based. As to conditions: Homo sapiens, 72 h incubation. The protocol:
A549 Cell Growth Inhibition Test (MTT Assay)
1. Cell strains: […] (human lung caner cell strains);
Culture medium: 90% F12K+10% FBS;
as §1
2. The culture solution was sucked out. Tthe plate was washed with 5 ml of PBS 1-2 times;
(§7) 3. PBS was sucked out. 2 ml of 0.25% pancreatin was added to infiltrate the cells for 1 min;
(§8) 4. The pancreatin was sucked out. The culture plate was placed in an incubator. Digestion was carried out for about 2 min at 37° C.;
(§9) 5. 4 ml of complete culture solution was added to the culture plate to stop the digestion. The cells were carefully scoured with micropipette (1 ml) to give a uniform cell suspension. The suspension was implanted into a 96-well cell culture plate by 2500 cells/100 μl per well. The culture plate was incubated overnight under 5% CO2 at 37° C. In day 2, 100 μl of culture solution comprising a compound was added in each well, and further incubated for 72 h under 5% CO2 at 37° C.
as §3
(§10) 7. 100 μl of serum-free culture solution containing 0.5 mg/ml MTT was added in each well, and incubated for 3 h;
as §4
(§11) 9. 100 μl of DMSO was added in each well and vibrated to dissolve;
as §5, §6
(§12) IC50: Concentration of a compound where inhibition ratio was 50%. IC50 values were fitted with Origin7.5.

The subject of assay [3] is NCI-H460 cells. In words: NCI-H460 Cell Growth Inhibition Test (MTT Assay). Type of assay: cell-based. As to conditions: Homo sapiens, 72 h incubation. The protocol:
NCI-H460 Cell Growth Inhibition Test (MTT Assay)
1. Cell strains: NCI-H460 (human large cell lung cancer cell strains);
as §1, §2, §7, §8, §9, §3, §10, §4, §11, §5, §6, §12

Assay [4] deals with BT-474 cells. Briefly: BT-474 Cell Growth Inhibition Test (SRB Assay). It counts as cell-based, human. As to conditions: Homo sapiens, 70 h incubation. The protocol: BT-474 Cell Growth Inhibition Test (SRB Assay)
1. Cell strains: BT-474 (human breast tumor cell strains);
2. SRB: available from Sigmaaldrich, goods number: S9012, lot number: 047K3751. SRB was reserved at the room temperature. 0.4% (w/v) of working solution was formulated with 1% of glacial acetic acid. The solution was reserved at the temperature of 4° C.; anti-tumor compounds; DMSO.
Culture medium (90% EMEM+10% FBS+0.1 mM NEAA, reserved at 4° C.);
(§13) 1. A plate (10 cm) of cells in logarithmic growth phase normally cultured was collected. The culture solution was sucked out. The plate was washed with 5 mL of PBS 1-2 times;
2. PBS was sucked out, and […] of 0.25% pancreatin was added to infiltrate the cells for 30 s;
3. The pancreatin was sucked out. The culture plate was pleaced in an incubator. Digestion was carried out for about 5 min at 37° C.;
4. 3 mL of complete culture solution was added to the culture plate to stop the digestion. The cells were carefully scoured with micropipette (1 ml) to give a uniform single cell suspension;
5. Cell suspension was counted. The suspension was diluted to 1×10^5/ml. The resulting suspension was developed uniformly on a plate. The plate was incubated under 5% CO2 at 37° C. overnight. In day 2, 80 μL of complete culture medium was added in each well and then 20 μL of culture solution comprising a compound was added. The mixture was incubated for 70 h under 5% CO2 at 37° C.
(§14) 6. The culture solution was sucked out. 100 uL of TCA fixed cells which were diluted to 10% were added to each well. The plate was kept in a refrigerator for 1 h at 4° C.
(§15) 7. TCA stationary liquid was sucked out. Each well was washed with 150 μL of ddH2O five times;
(§16) 8. After the stationary liquid was cleansed, the plate was dried in the air at the room temperature;
(§17) 9. 60 μL of SRB staining solution was added in each well. The well was stained for 15 min at the room temperature;
(§18) 10. The SRB staining solution was sucked out. Each well was washed with 150 μL of 1% glacial acetic acid five times;
(§19) 11. After the SRB staining solution was cleansed, the plate was dried in the air at the room temperature;
(§20) 12. 100 μL of 10 mM Tris was added in each well. The plate was vibrated to dissolve out SRB;
(§21) 13. OD values were determined at 570 nM.
as §6, §12

The test system of assay [5] is NCI-N87 cells. Briefly: NCI-N87 Cell Growth Inhibition Test (MTT Assay). It counts as cell-based. To be noted: Homo sapiens, 72 h incubation. The protocol: NCI-N87 Cell Growth Inhibition Test (MTT Assay)
1. Cell strains: NCI-N87 (human gastric carcinoma cell strains);
as §1
2. The culture solution was sucked out. The plate was washed wtih 5 ml of PBS 1-2 times;
(§22) 3. PBS was sucked out. 1.5 ml of 0.25% pancreatin was added to infiltrate the cells for 1 min;
4. The pancreatin was sucked out. The culture plate was placed in an incubator. Digestion was carried out for about 12 min at 37° C.;
5. 4.5 ml of complete culture solution was added to the culture plate to stop the digestion. The cells were carefully scoured with micropipette (1 ml) to give a uniform cell suspension. The suspension was implanted into a 96-well cell culture disc by 17000 cells/100 μl per well. The culture plate was incubated overnight under 5% CO2 at 37° C. In day 2, 100 μl of culture solution comprising a compound was added in each well, and further incubated for 72 h under 5% CO2 at 37° C.
as §3, §10, §4
(§23) 9. 100 μl of DMSO was added in each welland vibrated to dissolve;
as §5
1. Calculation of Rrelative Inhibition Ratio The inhibition ratio of a compound on cell growth=(PC−n)/(PC−NC)×100%
as §12

The subject of assay [6] is Sk-Br-3 cells. In words: Sk-Br-3 Cell Growth Inhibition Test (SRB Assay). It counts as cell-based. As to conditions: Homo sapiens, 91 h incubation. The protocol: Sk-Br-3 Cell Growth Inhibition Test (SRB Assay)
1. Cell strains: Sk-Br-3 (human breast cancer cell strains);
2. SRB: available from Sigmaaldrich, goods number: S9012, lot number: 047K3751. SRB was reserved at the room temperature. 0.4% (w/v) of working solution was formulated with 1% of glacial acetic acid. The solution was reserved at 4° C.; anti-tumor compounds; DMSO
Culture medium: 90% DMEM+10% FBS;
as §13
2. PBS was sucked out. […] of 0.25% pancreatin was added to infiltrate the cells for 30 s;
3. The pancreatin was sucked out. The culture plate was placed in an incubator. Digestion was carried out for about 1.5-2 min at 37° C.;
4. 4 mL of complete culture solution was added to the culture plate to stop the digestion. The cells were carefully scoured with micropipette (1 ml) to give a uniform single cell suspension;
5. Cell suspension was counted. The suspension was diluted to 1×10^5/ml. The resulting suspension was developed uniformly on a plate by 10000 cells/100 μl per well. The culture plate was incubated overnight under 5% CO2 at 37° C. In day 2, 100 μl of culture solution comprising a compound was added in each well, and further incubated for 91 h under 5% CO2 at 37° C.
as §14, §15, §16, §17, §18, §19, §20, §21
To: OD values of the starting content of cells when the cells were developed on a plate;
PC: OD values of cells after normal growth in control wells without a compound;
Ti: OD values of cells after growth in test wells with a compound;
NC: Background OD values of blank well without a compound and cells
Therefore: Ratio of cells in test wells to normal wells (% of control cell growth)=(Ti−To)/(PC−To)×100%
Ratio GI50 was concentration of a compound at the point of 50%.
Therefore: Ratio of killed cells to inoculated cells (% of killed cells)=(Ti−To)/(To−NC)×100%
LC50 was concentration point of a compound when half of the starting inoculated concentration was reached.
Concentration of a compound at this point is defined as TGI (total growth inhibition).

Assay [7] deals with Fadu cells. In words: Fadu Cell Growth Inhibition Test (MTT Assay). As to conditions: Homo sapiens, 72 h incubation. Type of assay: cell-based. The protocol: Fadu Cell Growth Inhibition Test (MTT Assay)
Cell strains: Fudu (human head and neck cancer cell strains);
Culture medium: 90% EMEM+10% FBS;
as §1, §2, §22
4. The pancreatin was sucked out. The culture plate was placed in an incubator. Digestion was carried out for about 5 min at 37° C.;
5. 4.5 ml of complete culture solution was added to the culture plate to stop the digestion. The cells were carefully scoured with micropipette (1 ml) to give a uniform cell suspension. The suspension was implanted into a 96-well cell culture plate by 6000 cells/100 μl per well. The culture plate was incubated overnight under 5% CO2 at 37° C. In day 2, 100 μl of culture solution comprising a compound was added in each well, and further incubated for 72 h under 5% CO2 at 37° C.
as §3, §10, §4, §23, §5, §6, §12

In the case of `CN(C)C/C=C/C(=O)Nc1cc2c(Nc3ccc(F)c(Cl)c3)c(C#N)cnc2cc1Oc1cccnc1` [Example 174, (E)-N-(4-(3-CHLORO-4-FLUOROPHENYLAMINO)-3-CYANO-7-(PYRIDIN-3-YL-OXY)QUINOLIN-6-YL)4-(DIMETHYLAMINO)-BUT-2-ENAMIDE], the IC50 is 950 nM in assay [1], 3.7 µM in assay [2] and 3000 nM in assay [3].
Consider `Cc1ccccc1COc1ccc(Nc2c(C#N)cnc3cc(O[C@H]4CCOC4)c(NC(=O)/C=C/CN(C)C)cc23)cc1Cl` [Example 166, (S,E)-N-(4-(4-(2-METHYLBENZYLOXY)-3-CHLOROPHENYLAMINO)-3-CYANO-7-(TETRAHYDROFURAN-3-YL-OXY)QUINOLIN-6-YL)-4-(DIMETHYLAMINO)-BUT-2-ENAMIDE], for which the inhibition at 1 µM in assay [1] was 69%; in assay [4] (BT-474, 70 h, compound 1 μM, read-out: Growth Inhibition Ratio (%)), 69%.
Consider `N#Cc1cnc2cc(O[C@H]3CCOC3)c(NC(=O)/C=C/CNCCCCCCO)cc2c1Nc1ccc(OCc2ccccn2)c(Cl)c1` [Example 154, (S,E)-N-(4-(3-CHLORO-4-(PYRIDIN-2-YL-METHOXY)PHENYLAMINO)-3-CYANO-7-(TETRAHYDROFURAN-3-YL-OXY)QUINOLIN-6-YL)-4-(6-HYDROXYHEXYLAMINO)-BUT-2-ENAMIDE], for which the IC50 in assay [1] is 162 nM; in assay [4], 12 nM; in assay [5], 41 nM; in assay [7], 324 nM. Also, halving of growth in assay [6] (GI50) required 38 nM.
On to `C#Cc1cccc(Nc2c(C#N)cnc3cc(O[C@H]4CCOC4)c(NC(=O)/C=C/CN(C)CCO)cc23)c1` [Example 190, (S,E)-N-(3-CYANO-4-(3-ETHYNYLPHENYLAMINO)-7-(TETRAHYDROFURAN-3-YL-OXY)QUINOLIN-6-YL)-4-(N-METHYLETHANOLAMINO)-BUT-2-ENAMIDE], for which, in assay [1], the inhibition at 1 µM was 79%. This molecule also had a half-inhibitory concentration (IC50) in assay [4] of 267 nM.
